Experimental data from publication PMC2799665.

Test: End-to-end contact formation (no covalent bond): MR121 oxazine dye fluorescence quenched by C-terminal Trp through van der Waals contact/stacking; ns-resolved FCS; single-exponential fit over 6-300 ns with two-state model
Settings: the molecule shown is the open-chain precursor; water (aqueous solution); 20.0 °C

Compared with `CCN1CCCc2cc3c(cc21)Oc1cc2c(cc1=N3)CCC[N+]=2CCCC(=O)NCC(=O)N[C@@H](CO)C(=O)NCC(=O)N[C@@H](CO)C(=O)NCC(=O)N[C@@H](CO)C(=O)N[C@@H](Cc1c[nH]c2ccccc12)C(=O)[O-]` [MR121-Gly-Ser-Gly-Ser-Gly-Ser-Trp-O-], `CCN1CCCc2cc3c(cc21)Oc1cc2c(cc1=N3)CCC[N+]=2CCCC(=O)NCC(=O)N[C@@H](CO)C(=O)NCC(=O)N[C@@H](CO)C(=O)N[C@@H](Cc1c[nH]c2ccccc12)C(=O)[O-]` [MR121-Gly-Ser-Gly-Ser-Trp-O-] is lower in end-to-end contact formation time constant (ns (closing time constant tau+ = 1/k+)): 17.6 for the first, 14.6 for the second.

First: CCN1CCCc2cc3c(cc21)Oc1cc2c(cc1=N3)CCC[N+]=2CCCC(=O)NCC(=O)N[C@@H](CO)C(=O)NCC(=O)N[C@@H](CO)C(=O)NCC(=O)N[C@@H](CO)C(=O)NCC(=O)N[C@@H](CO)C(=O)NCC(=O)N[C@@H](CO)C(=O)NCC(=O)N[C@@H](CO)C(=O)NCC(=O)N[C@@H](CO)C(=O)NCC(=O)N[C@@H](CO)C(=O)NCC(=O)N[C@@H](CO)C(=O)NCC(=O)N[C@@H](CO)C(=O)NCC(=O)N[C@@H](CO)C(=O)NCC(=O)N[C@@H](CO)C(=O)NCC(=O)N[C@@H](CO)C(=O)NCC(=O)N[C@@H](CO)C(=O)NCC(=O)N[C@@H](CO)C(=O)N[C@@H](Cc1c[nH]c2ccccc12)C(=O)[O-]
Second: CCN1CCCc2cc3c(cc21)Oc1cc2c(cc1=N3)CCC[N+]=2CCCC(=O)NCC(=O)N[C@@H](CO)C(=O)NCC(=O)N[C@@H](CO)C(=O)NCC(=O)N[C@@H](CO)C(=O)NCC(=O)N[C@@H](CO)C(=O)NCC(=O)N[C@@H](CO)C(=O)NCC(=O)N[C@@H](CO)C(=O)NCC(=O)N[C@@H](CO)C(=O)NCC(=O)N[C@@H](CO)C(=O)NCC(=O)N[C@@H](CO)C(=O)NCC(=O)N[C@@H](CO)C(=O)NCC(=O)N[C@@H](CO)C(=O)NCC(=O)N[C@@H](CO)C(=O)N[C@@H](Cc1c[nH]c2ccccc12)C(=O)[O-]
The end-to-end contact formation time constant (ns (closing time constant tau+ = 1/k+)) of the first is higher: 103 for the first, 68.4 for the second.

Going from `CCN1CCCc2cc3c(cc21)Oc1cc2c(cc1=N3)CCC[N+]=2CCCC(=O)NCC(=O)N[C@@H](CO)C(=O)NCC(=O)N[C@@H](CO)C(=O)NCC(=O)N[C@@H](CO)C(=O)NCC(=O)N[C@@H](CO)C(=O)NCC(=O)N[C@@H](CO)C(=O)NCC(=O)N[C@@H](CO)C(=O)NCC(=O)N[C@@H](CO)C(=O)NCC(=O)N[C@@H](CO)C(=O)NCC(=O)N[C@@H](CO)C(=O)N[C@@H](Cc1c[nH]c2ccccc12)C(=O)[O-]` to `CCN1CCCc2cc3c(cc21)Oc1cc2c(cc1=N3)CCC[N+]=2CCCC(=O)NCC(=O)N[C@@H](CO)C(=O)NCC(=O)N[C@@H](CO)C(=O)NCC(=O)N[C@@H](CO)C(=O)NCC(=O)N[C@@H](CO)C(=O)NCC(=O)N[C@@H](CO)C(=O)NCC(=O)N[C@@H](CO)C(=O)NCC(=O)N[C@@H](CO)C(=O)N[C@@H](Cc1c[nH]c2ccccc12)C(=O)[O-]`, the end-to-end contact formation time constant (ns (closing time constant tau+ = 1/k+)) falls from 48.9 to 32.7.

For `CCN1CCCc2cc3c(cc21)Oc1cc2c(cc1=N3)CCC[N+]=2CCCC(=O)NCC(=O)N[C@@H](CO)C(=O)NCC(=O)N[C@@H](CO)C(=O)NCC(=O)N[C@@H](CO)C(=O)NCC(=O)N[C@@H](CO)C(=O)NCC(=O)N[C@@H](CO)C(=O)N[C@@H](Cc1c[nH]c2ccccc12)C(=O)[O-]` [MR121-Gly-Ser-Gly-Ser-Gly-Ser-Gly-Ser-Gly-Ser-Trp-O-], the end-to-end contact formation time constant (ns (closing time constant tau+ = 1/k+)) was 20.5.
